The IC50 is the point on the concentration scale where inhibition reaches its midpoint.

The text below walks through data of patent publication US8067394B2, “Synthesis and biological activities of new tricyclic-bis-enones (TBEs)” (Trustees of Dartmouth College, priority 2006, dated 2011).

For test [1], the system named is NO production in RAW cells. The test is described as follows: Inhibition of NO production in RAW cells stimulated with interferon-γ. Format: cell-based, mouse. Particulars: for IC50: read-out: IC50 (nM), NO production in RAW cells.
Test [2] concerns iNOS. The test is described as follows: Inhibition of iNOS induction in RAW cells stimulated with IFN-γ (Western blot). Particulars: FIG. 10; 30-300 nM, IFNγ 10 ng/ml, 24 hours. It counts as cell-based, mouse. For orientation: A western blot detects proteins with antibodies after separation by electrophoresis.
Test [3] concerns HO-1. Description: Induction of HO-1 in RAW cells (Western blot). It counts as cell-based, mouse. Particulars: FIG. 9; 30-300 nM, 24 hours.
The subject of test [4] is heme oxygenase-1. The test is described as follows: Induction of heme oxygenase-1 in liver of CD-1 mice after gavage. It counts as in vivo. The settings on record: FIG. 3; CD-1 mice, gavage in DMSO, livers after 6 h. As to the method:
FIG. 3. […] CD-1 mice (2 per group) were gavaged with TBEs or CDDO-Im in DMSO. After 6 h, livers were harvested and homogenized. Lysates were separated by SDS-PAGE, probed with HO-1 antibodies, and developed by ECL.
FIG. 11. […] Male CD-1 mice (3 per group) were gavaged with 1 μmol TBEs, CDDO or CDDO-Im in DMSO. Six hours later, livers were harvested and homogenized. Lysates were separated by SDS-PAGE, probed with HO-1 antibodies, and developed by ECL.
CD-1 mice (2 per group) were gavaged with TBEs or CDDO-Im in DMSO. After 6 h, livers were harvested and homogenized. Lysates were separated by SDS-PAGE, probed with HO-1 antibodies, and developed by ECL.

Test [5] has as its system NO production in primary mouse macrophages. The settings on record: cited from earlier work; for IC50: Table 1, stimulated with interferon-γ, compounds racemic.
Test [6] deals with MCF-7 mouse breast cancer cell lines. The settings on record: Honda et al., 2003; cited from earlier work.
The test system of test [7] is NO production in RAW cells. The settings on record: Honda et al., 2000, 2002; cited from earlier work.
The mark [8] stands for this setting: Mus musculus, Table 6, optically active TBE-31 and 34, stimulated with interferon-7.
The mark [9] stands for this setting: Mus musculus, Table 5, C-8a functionalized TBE-9 analogs, stimulated with interferon-γ.

Entries after “also recorded” stand apart in the source; their conditions may differ. Read-outs that look alike come from different tables or passages of the source. Where only a bound is given, the exact number is not on record here.

In the case of `CC1(C)C(=O)C(C#N)=CC2(C)C3=CC(=O)C(C#N)=CC3(C#C[Si](C)(C)C)CCC12` (stereo not shown) [TBE-34], the “Potency for inhibition of NO production in RAW cells (in words)” value in test [1] was “nearly equivalent potency to that of TBE-31”. In addition, the half-inhibitory concentration (IC50) in test [1] (Mus musculus) was 3 nM. In test [2], the “Inhibition of induction of iNOS in RAW cells stimulated with IFNγ” value was “nearly equivalent in potency to TBE-31; also recorded: nearly equivalent in potency to both compounds”. Moreover, the “Induction of HO-1 in RAW cells” value in test [3] is on record as “nearly equivalent in potency to TBE-31”.

For `C#C[C@@]12C=C(C#N)C(=O)C=C1[C@@]1(C)C=C(C#N)C(=O)C(C)(C)[C@H]1CC2` [(+)-TBE-31, (+)-(4bS,8aS,10aR)-10a-ethynyl-4b,8,8-trimethyl-3,7-dioxo-3,4b,7,8,8a,9,10,10a-octahydrophenanthrene-2,6-dicarbonitrile], the concentration for half-maximal inhibition (IC50) in test [1] (setting [8]) turned out to be 1 nM.

In the case of `CC1(C)CC[C@]2(C(=O)n3ccnc3)CC[C@]3(C)[C@H](C(=O)C=C4[C@@]5(C)C=C(C#N)C(=O)C(C)(C)[C@@H]5CC[C@]43C)[C@@H]2C1` [CDDO-Im, 1-[2-cyano-3-,12-dioxooleana-1,9(11)-dien-28-oyl]imidazole, reference compound], the “Induction of heme oxygenase-1 in liver in vivo” value in test [4] is “very potent triterpenoid agent for induction of heme oxygenase-1”. In addition, the “Induction of HO-1 in RAW cells” value in test [3] was “most potent compound amongst semi-synthetic triterpenoid analogues in this assay”.

Consider `CC1(C)C(=O)C(C#N)=C[C@]2(C)C3=CC(=O)C[C@@H](O)[C@]3(C)CC[C@@H]12` [TBE-4], for which the IC50 in test [5] is 75 nM.

In the case of `CC(=O)O[C@@H]1CC(=O)C=C2[C@@]3(C)C=C(C#N)C(=O)C(C)(C)[C@@H]3CC[C@]21C` [TBE-3], the half-maximal inhibitory concentration (IC50) in test [5] was 53 nM.

Regarding `CC1(C)C(=O)C(C#N)=C[C@]2(C)C3=CC(=O)C(C#N)=C[C@]3(C)CC[C@@H]12` [(−)-TBE-9], the “Activity against MCF-7 mouse breast cancer cell lines” value in test [6] is listed as “active”.

As to `CC1(C)C(=O)C(C#N)=CC2(C)C3=CC(=O)C(C#N)=CC3(C#CC#N)CCC12` (stereo not shown) [TBE-38], in test [1] (setting [9]), the concentration for half-maximal inhibition (IC50) came to 4 nM.

Regarding `C[C@]12CCC(=O)C=C1CC[C@@H]1[C@@H]2[C@@H](O)C[C@@]2(C)[C@H]1CC[C@]2(O)C(=O)CO` [hydrocortisone, reference compound], the IC50 in test [1] (Mus musculus, Table 4, C-8a functionalized TBE-10 analogs, stimulated with interferon-γ) is 61 nM; in test [5] it was 10 nM.

For the compound `COC(=O)[C@]12CCC(C)(C)C[C@H]1C1C(=O)C=C3[C@@]4(C)C=C(C(=O)O)C(=O)C(C)(C)[C@@H]4CC[C@@]3(C)[C@]1(C)CC2` (stereo partly shown) [TP-190, reference compound], the “Inhibition of NO production in mouse macrophages (in words)” value in test [5] (Honda et al., 2000, 2002) is “potent inhibitors of NO production”. For the same compound, the “Inhibition of NO production in RAW cells (in words)” value in test [7] is “potent inhibitors of NO production”.

Consider `CCC#CC12C=C(C#N)C(=O)C=C1C1(C)C=C(C#N)C(=O)C(C)(C)C1CC2` (stereo not shown) [TBE-36], for which, in test [1] (setting [9]), the concentration for half-maximal inhibition (IC50) was determined as 20 nM.

`CC1(C)C(=O)C(C#N)=CC2(C)C3=CC(=O)C(C#N)=CC3(C#C[Si](C)(C)C)CCC12` (single isomer, unassigned; (-)) [(−)-TBE-34]: the concentration for half-maximal inhibition (IC50) in test [1] (Table 6, optically active TBE-31 and 34, stimulated with interferon-7) was 3 nM.

As for `CC(=O)O[C@@H]1CCC=C2[C@@]3(C)C=C(C#N)C(=O)C(C)(C)[C@@H]3CC[C@]21C` [TBE-2], the IC50 in test [5] was 480 nM.

For the compound `C#C[C@]12C=C(C#N)C(=O)C=C1[C@@]1(C)C=C(C#N)C(=O)C(C)(C)[C@@H]1CC2` [(−)-TBE-31], the IC50 in test [1] (setting [8]) stood at 3 nM.

In the case of `CC1(C)CC[C@]2(C#N)CC[C@]3(C)[C@H](C(=O)C=C4[C@@]5(C)C=C(C#N)C(=O)C(C)(C)[C@@H]5CC[C@]43C)[C@@H]2C1` [TP-225, reference compound], the IC50 in test [1] (setting [9]) was found to be 1 nM.

Take `CC1(C)CC[C@]2(C(=O)O)CC[C@]3(C)[C@H](C(=O)C=C4[C@@]5(C)C=C(C#N)C(=O)C(C)(C)[C@@H]5CC[C@]43C)[C@@H]2C1` [CDDO, 2-cyano-3,12-dioxooleana-1,9(11)-dien-28-oic acid, reference compound]: the IC50 in test [1] (Table 4, C-8a functionalized TBE-10 analogs, stimulated with interferon-γ) was 6 nM; in test [1] (Table 5, C-8a functionalized TBE-9 analogs, stimulated with interferon-γ) it was 20 nM; in test [5] it was 0.5 nM.

Regarding `CC1(C)C(=O)C(C#N)=C[C@]2(C)C3=CC(=O)C=C[C@]3(C)CC[C@@H]12` [TBE-5], the IC50 in test [5] was 61 nM.

Regarding `CC#CC12C=C(C#N)C(=O)C=C1C1(C)C=C(C#N)C(=O)C(C)(C)C1CC2` (stereo not shown) [TBE-35], the IC50 in test [1] (setting [9]) came to 5 nM.

Regarding `CC1(C)CC[C@]2(C(=O)O)CC[C@]3(C)C(=CC[C@@H]4[C@@]5(C)CC[C@H](O)C(C)(C)[C@@H]5CC[C@]43C)[C@@H]2C1` [Oleanolic acid, reference compound], the IC50 in test [5] was more than 40000 nM.

For the compound `C#CC#CC12C=C(C#N)C(=O)C=C1C1(C)C=C(C#N)C(=O)C(C)(C)C1CC2` (stereo not shown) [TBE-39], the IC50 in test [1] (setting [9]) came out at 3 nM. The “Potency for inhibition of NO production in RAW cells (in words)” value in test [1] (RAW cells, interferon-γ) is on record as “nearly equivalent potency to that of TBE-31”.
